Reference: PubChem BioAssay AID1205 (EPA DSSTox, 2008)
Activity calls are given as the source filed them.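 The calls were made as follows: active = tumour findings in long-term animal cancer tests in more than one sex, species or organ; inactive = no tumour finding and more than one negative test.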 *1 amine or outer side, *2 acyl side, *3 side chain or, on linkers, in order; H or OH if unused. Where a SMILES comes first, the peptide text is derived from it. Bridges are numbered along the chain shown (N, C = ends). Roman numbers before positions name the chains, in order. [ ]: non-standard residue; d: D form. Actinocin(9to1) = Cc1c2oc3c(C)ccc(C(=O)[*:1])c3nc-2c(C(=O)[*:2])c(N)c1=O; NMeV = CN[C@H](C(=O)O)C(C)C; Sar = CNCC(=O)O

Test: DSSTox (CPDBAS) Carcinogenic Potency Database Summary MultiCellCall Results
Settings: animal carcinogenicity bioassays, multi-cell call summary
Method in brief: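 ActivityScore sums 50 for multispecies, 30 for multisex and 20 for multisite positivity. Based on the most positive experiment per sex-species across standardised chronic rodent and other animal cancer tests.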
In the case of `NN`, the outcome is reported as “active; multisite active; multisex active; multispecies active”. In the case of `NNc1ccccc1`, the outcome is reported as “active; multisex active”. With `C[C@]12CCC(=O)C=C1CC[C@@H]1[C@@H]2[C@@H](O)C[C@@]2(C)[C@H]1CC[C@]2(O)C(=O)CO` the outcome was “inactive; multisex inactive”. With `C[C@H](CCc1ccccc1)NC[C@H](O)c1ccc(O)c(C(N)=O)c1` the outcome was “inactive; multisex inactive”. In the case of `Brc1cc(Br)c(-c2c(Br)c(Br)c(Br)c(Br)c2Br)c(Br)c1Br`, the outcome is reported as “active; multisex active”. In the case of `c1ccoc1`, the outcome is reported as “active; multisite active; multisex active; multispecies active”. In the case of `C1CO1`, the outcome is reported as “active; multisite active; multisex active; multispecies active”. For `O=C(O)C(Cl)Cl`, the outcome was “active; multisex active; multispecies active”. In the case of `c1ccc(NNc2ccccc2)cc1`, the outcome is reported as “active; multisite active; multisex active; multispecies active”. In the case of `C=CC(N)=O`, the outcome is reported as “active; multisite active; multisex active”. With `O=C(O)c1ccccc1-c1c2cc(I)c(=O)c(I)c-2oc2c(I)c(O)c(I)cc12` the outcome was “inactive; multisex inactive; multispecies inactive”. In the case of `CCN(CC)c1cc2oc3cc(=[N+](CC)CC)c(C)cc-3c(-c3ccc(S(=O)(=O)O)cc3S(=O)(=O)[O-])c2cc1C`, the outcome is reported as “inactive; multisex inactive”. In the case of `CCCCOC(=O)c1ccc(O)cc1`, the outcome is reported as “inactive; multisex inactive”. With `O=NN1CCCCC1C(=O)O` (centres undefined) the outcome was “inactive; multisex inactive”. With `N[C@@H](CCC(=O)NNc1ccc(CO)cc1)C(=O)O` the outcome was “inactive; multisex inactive”. In the case of `O=C(c1ccccc1)C(O)c1ccccc1` (centres undefined), the outcome is reported as “inactive; multisex inactive; multispecies inactive”. For `CC(=O)Nc1ccc(S(=O)(=O)O)c2cc(S(=O)(=O)O)c(N=Nc3ccc(N=Nc4ccc(S(=O)(=O)O)cc4)c4ccc(S(=O)(=O)O)cc34)c(O)c12`, the outcome was “inactive; multisex inactive; multispecies inactive”. For `Cc1cccc2ccccc12`, the outcome was “inactive; multisex inactive”. For `O=C(Nc1ccc([N+](=O)[O-])cc1Cl)c1cc(Cl)ccc1O`, the outcome was “inactive; multisex inactive; multispecies inactive”. In the case of `CN[C@@H](C)[C@H](O)c1ccccc1`, the outcome is reported as “inactive; multisex inactive; multispecies inactive”. In the case of `COC1=CC(=O)C[C@@H](C)[C@]12Oc1c(Cl)c(OC)cc(OC)c1C2=O`, the outcome is reported as “active; multisite active; multisex active”. For `ClCCCl`, the outcome was “active; multisite active; multisex active; multispecies active”. For `O=C1C2(Cl)C3(Cl)C4(Cl)C(Cl)(Cl)C5(Cl)C3(Cl)C1(Cl)C5(Cl)C24Cl` (centres undefined), the outcome was “active; multisex active; multispecies active”. For `O=P(OCCCl)(OCCCl)OCCCl`, the outcome was “active; multisite active; multisex active; multispecies active”. In the case of `ClCc1cccnc1`, the outcome is reported as “active; multisex active; multispecies active”. With `COc1ccc([N+](=O)[O-])cc1N` the outcome was “active; multisite active; multisex active; multispecies active”. For `CBr`, the outcome was “inactive; multisex inactive; multispecies inactive”. In the case of `NNc1nc(-c2ccc([N+](=O)[O-])o2)cs1`, the outcome is reported as “active; multisite active; multispecies active”. For `C[C@](N)(Cc1ccc(O)c(O)c1)C(=O)O`, the outcome was “inactive; multisex inactive; multispecies inactive”. For `CCCCNC(=O)NS(=O)(=O)c1ccc(C)cc1`, the outcome was “inactive; multisex inactive; multispecies inactive”. For `CCN(Cc1cccc(S(=O)(=O)O)c1)c1ccc(C(=C2C=CC(=[N+](CC)Cc3cccc(S(=O)(=O)O)c3)C=C2)c2ccccc2S(=O)(=O)[O-])cc1`, the outcome was “inactive; multisex inactive; multispecies inactive”. For `CC(C)C=O`, the outcome was “inactive; multisex inactive; multispecies inactive”. For `CCCNC(=O)NS(=O)(=O)c1ccc(Cl)cc1`, the outcome was “inactive; multisex inactive; multispecies inactive”. For `CN(C)c1ccc(Cc2ccc(N(C)C)cc2)cc1`, the outcome was “active; multisite active; multisex active; multispecies active”. With `CC(=O)CN(C)N=O` the outcome was “active; multisite active; multisex active”. In the case of `Nc1c(Cl)cc(Cl)cc1Cl`, the outcome is reported as “active; multisite active”. With `CCOP(=S)(OCC)Oc1ccc([N+](=O)[O-])cc1` the outcome was “inactive; multisex inactive; multispecies inactive”. For `C1CCCNCCC1`, the outcome was “inactive; multisex inactive”. For `O=C(O)CCC(=O)O`, the outcome was “inactive; multisex inactive”. For `CCNc1nc(Cl)nc(NCC)n1`, the outcome was “inactive; multisex inactive”. In the case of `O=NN1CC(=O)NC1=O`, the outcome is reported as “active; multisite active; multisex active”. With `Nc1ccc2ccccc2c1S(=O)(=O)O` the outcome was “inactive; multisex inactive”. For `ClCC(Br)CBr` (centres undefined), the outcome was “active; multisite active; multisex active; multispecies active”. In the case of `CN(N=O)C(N)=O`, the outcome is reported as “active; multisite active; multispecies active”. With `O=C1CCC(=O)O1` the outcome was “inactive; multisex inactive; multispecies inactive”. For `CNc1ccc(N(CCO)CCO)cc1[N+](=O)[O-]`, the outcome was “active; multisite active; multisex active; multispecies active”. With `CCn1c2ccccc2c2cc(N)ccc21` the outcome was “active; multisite active; multisex active; multispecies active”. With `Cc1cc(Cc2cc(C)cc(C(C)(C)C)c2O)c(O)c(C(C)(C)C)c1` the outcome was “inactive; multisex inactive”. For `COC(=O)C1=C(C)NC(C)=C(C(=O)OCCN2CCN(C(c3ccccc3)c3ccccc3)CC2)C1c1cccc([N+](=O)[O-])c1` (centres undefined), the outcome was “inactive; multisex inactive; multispecies inactive”. In the case of `CN(C)C(=S)S[Se](SC(=S)N(C)C)(SC(=S)N(C)C)SC(=S)N(C)C`, the outcome is reported as “inactive; multisex inactive”. With `CC(=O)OC/C=C(\C)CCC=C(C)C` the outcome was “inactive; multisex inactive; multispecies inactive”. In the case of `O=NO`, the outcome is reported as “active; multisite active; multisex active”. In the case of `CCCCNC(=O)N(CCCC)N=O`, the outcome is reported as “active; multisite active”. For `O=C1CCCCCN1`, the outcome was “inactive; multisex inactive; multispecies inactive”. In the case of `CCOC(=O)CC(SP(=O)(OC)OC)C(=O)OCC` (centres undefined), the outcome is reported as “inactive; multisex inactive; multispecies inactive”. For `CCN(CC)C(=S)S[Te](SC(=S)N(CC)CC)(SC(=S)N(CC)CC)SC(=S)N(CC)CC`, the outcome was “inactive; multisex inactive; multispecies inactive”. With `COC(=O)[C@H](Cc1ccccc1)NC(=O)[C@@H](N)CC(=O)O` (H-Asp-Phe-OMe) the outcome was “inactive; multisex inactive”. For `CCC(Br)(CC)C(=O)NC(N)=O`, the outcome was “inactive; multisex inactive; multispecies inactive”. In the case of `Cc1cc(N=Nc2c(O)ccc3ccccc23)c(S(=O)(=O)O)cc1Cl`, the outcome is reported as “active; multisite active”. In the case of `CC1(C)[C@@H](OC2O[C@H](C(=O)O)[C@@H](O)[C@H](O)[C@H]2O[C@H]2O[C@H](C(=O)O)[C@@H](O)[C@H](O)[C@H]2O)CC[C@]2(C)[C@H]3C(=O)C=C4[C@@H]5C[C@@](C)(C(=O)O)CC[C@]5(C)CC[C@@]4(C)[C@]3(C)CC[C@@H]12` (some centres undefined), the outcome is reported as “inactive; multisex inactive”. With `CC(C)CCCCCCOC(=O)c1ccccc1C(=O)OCCCCCCC(C)C` the outcome was “active; multisite active; multisex active; multispecies active”. For `C[C@@H]1CCC[C@H](C)N1CCCC(O)(c1ccccc1)c1ccccn1` (some centres undefined), the outcome was “inactive; multisex inactive; multispecies inactive”. In the case of `C=C(F)F`, the outcome is reported as “inactive; multisex inactive”. In the case of `CCN(CC(F)(F)F)N=O`, the outcome is reported as “active; multisite active”. For `C=C(Cl)CSC(=S)N(CC)CC`, the outcome was “active; multisite active; multisex active; multispecies active”. For `O=NN1CCN(N=O)CC1`, the outcome was “active; multisex active”. For `CN1C2CC[C@@H]1CC(NC(=O)c1cc(Cl)cc3c1OC(C)(C)C3)C2` (some centres undefined), the outcome was “inactive; multisex inactive”. For `Cc1ccc(N)cc1N`, the outcome was “active; multisite active; multisex active; multispecies active”. In the case of `O=CNNc1nc(-c2ccc([N+](=O)[O-])o2)cs1`, the outcome is reported as “active; multisite active; multisex active; multispecies active”. In the case of `CC(C)(C)c1cc(O)ccc1O`, the outcome is reported as “inactive; multisex inactive”. For `CCCCCN(N=O)C(=O)OCC`, the outcome was “active; multisite active”. With `C1C2OC2C2C1C1CC2C2OC12` (centres undefined) the outcome was “inactive; multisex inactive; multispecies inactive”. For `Cc1c2oc3c(C)ccc(C(=O)N[C@@H]4C(=O)N[C@H](C(C)C)C(=O)N5CCC[C@H]5C(=O)N(C)CC(=O)N(C)[C@@H](C(C)C)C(=O)O[C@@H]4C)c3nc-2c(C(=O)N[C@@H]2C(=O)N[C@H](C(C)C)C(=O)N3CCC[C@H]3C(=O)N(C)CC(=O)N(C)[C@@H](C(C)C)C(=O)O[C@@H]2C)c(N)c1=O` (I: T[dV]P[Sar][NMeV] / II: T[dV]P[Sar][NMeV]; ester I:1-I:C, II:1-II:C; linker I:N-II:N via Actinocin(9to1)), the outcome was “active; multisex active”. For `O=C1OC(=O)c2ccccc21`, the outcome was “inactive; multisex inactive; multispecies inactive”. With `CCCOC(=O)c1cc(O)c(O)c(O)c1` the outcome was “inactive; multisex inactive; multispecies inactive”. In the case of `C=CCN(N=O)C(N)=O`, the outcome is reported as “active; multisite active; multisex active”. With `O=C1C(Cl)=C(Cl)C(=O)C(Cl)=C1Cl` the outcome was “inactive; multisex inactive”. For `Clc1ccc(C(c2ccc(Cl)cc2)C(Cl)(Cl)Cl)cc1`, the outcome was “active; multisite active; multisex active; multispecies active”. With `O=S1(=O)CC=CC1` the outcome was “inactive; multisex inactive; multispecies inactive”. For `CCCCCCCCCCCCN(C)N=O`, the outcome was “active; multisite active; multisex active”. In the case of `CCN(CC)C(=O)Nc1ccc(OCC(O)CNC(C)(C)C)c(C(C)=O)c1` (centres undefined), the outcome is reported as “inactive; multisex inactive; multispecies inactive”. In the case of `CCCCC(C)(O)C/C=C/[C@H]1[C@H](O)CC(=O)[C@@H]1CCCCCCC(=O)OC` (some centres undefined), the outcome is reported as “inactive; multisex inactive; multispecies inactive”. For `C=CCOc1ccccc1OCC(O)CNC(C)C` (centres undefined), the outcome was “inactive; multisex inactive; multispecies inactive”. With `CC1=C(C(=O)OCCN(Cc2ccccc2)c2ccccc2)C(c2cccc([N+](=O)[O-])c2)C(P2(=O)OCC(C)(C)CO2)=C(C)N1` (centres undefined) the outcome was “inactive; multisex inactive; multispecies inactive”. In the case of `CCOP(=S)(OCC)SC1OCCOC1SP(=S)(OCC)OCC` (centres undefined), the outcome is reported as “inactive; multisex inactive; multispecies inactive”. For `NC(=S)Nc1ccccc1`, the outcome was “inactive; multisex inactive; multispecies inactive”. For `N[C@@H](CS)C(=O)O`, the outcome was “inactive; multisex inactive”. For `CN(C)CCN(Cc1cccs1)c1ccccn1`, the outcome was “active; multisex active”. With `NC(=O)NNc1ccccc1` the outcome was “active; multisex active”.
